In PMC3679022, “A Cancer Specific Cell-Penetrating Peptide, BR2, for the Efficient Delivery of an scFv into Cancer Cells” (PLoS ONE, 2013):

Legend:
[1] = test system: HeLa cells; type: cell-based, human; settings: FACS
Description: To evaluate the internalization of FITC-labeled peptides, HeLa cells were seeded onto 12-well plates at a density of 2×10^5 cells per well and incubated for 24 h. FITC-labeled peptides, at various concentrations ranging from […], were then incubated with the cells for 30 min at 37°C. To compare the cellular uptake of peptides, cancer and normal cells were treated with FITC-labeled peptides (each, 10 µM) and incubated for 30 min at 37°C. Following the incubation, cells were washed three times with ice-cold PBS to remove excess extracellular complexes. Next, the cells were treated with trypsin (1 mg/ml) for 10 min to remove any remaining peptides bound to the cell surface. After trypsinization, the cells were collected by centrifugation (1,000×g for 5 min), resuspended with 500 µl ice-cold 2% FBS/PBS containing propidium iodide (PI), and then immediately analyzed (10,000 events/sample) by fluorescence activated cell sorting (FACS).
To understand further the cell-penetrating mechanism of peptides, the effects of temperature and metabolic inhibitors were examined. To elucidate the temperature dependency, HeLa cells were incubated at 4°C for 30 min prior to the addition of the peptides. Next, cells were treated with FITC-labeled peptides (each, 5 µM) at 4°C for 30 min. For the energy-depletion study, HeLa cells were preincubated with sodium azide (NaN3, 10 mM) at 37°C for 1 h and then incubated with FITC-labeled peptides (each, 5 µM) at 37°C for 30 min.
To study the role of endocytosis in peptide uptake, cells were pretreated with several endocytosis inhibitors at 37°C for 1 h: (i) amiloride (5 mM), which is known to block macropinocytosis by inhibiting a sodium channel; (ii) nocodazole (100 ng/ml), which inhibits the clathrin-mediated pathway; and (iii) methyl-ß-cyclodextrin (MßCD, 5 mM), which inhibits lipid raft-mediated processes by depleting cholesterol from the plasma membrane. All inhibitors were purchased from Sigma (St. Louis, MO).
To examine the effects of negatively charged components on the cell surface for peptide internalization, HeLa cells were pretreated with gangliosides (monosialoganglioside GM3 from canine blood), heparin sulfate, or sialic acid (Neu5Ac, all from Sigma) (20 µg/ml) for 30 min. For the inhibition of ganglioside biosynthesis, cells were pretreated with D-threo-1-phenyl-2-hexadecanoyl amino-3-morpholino-1-propanol (PPMP, 5 µM) for 48 h.
For all of these experimental conditions, flow cytometry analyses were performed with live cells using a Becton Dickinson FACSCalibur flow cytometer (BD Biosciences, San Diego, CA). In each case, the fluorescence of 10,000 viable cells was acquired. Viable cells were gated based on a sideward and forward scatter. For data analysis, WinMDI software (Joe Trotter, Scripps Research Institute, La Jolla, CA) was used. The statistical significance was evaluated by Student’s t-test at a 95% confidence interval.
Figure 2 BR2 specifically penetrates cancer cell membranes in a concentration-dependent manner. (A) Analysis of the cell-penetrating efficiency of each peptide in different cell types by flow cytometry. FITC-labeled Tat, BR1 and BR2 peptides (10 µM) were added to different cell types: HeLa, HCT116 and B16/F10 cancer cells and HaCat, BJ and NIH 3T3 normal cells. After 30 min of incubation at 37°C, the FITC-positive cells were counted by flow cytometry. Values represent the percentage of fluorescence-positive cells in the total cell population. (B) Quantitative assessment of cell penetration of each peptide by flow cytometry. HeLa cells were incubated with FITC-labeled peptides at concentrations of 1, 2, 5, or 10 µM for 30 min at 37°C. Afterwards the cells were washed with cold PBS and harvested and cellular fluorescence was analyzed by flow cytometry. […] Prior to analysis, extracellular fluorescence of surface bound peptides was removed by a trypsin treatment (1 mg/ml for 10 min). […]

[2] = test system: HCT116 cells (K-ras mutated cells); test: Cell proliferation assay (MTT); type: cell-based, human; parameters: dose or concentration left out as unconfirmed; settings: same concentrations as fusion proteins (Fig. S4:), 24 h
Description: To assess the anti-proliferative activity of peptides and anti-Ras scFv fusion proteins, HCT116 cells (K-ras mutated cells) were seeded in 96-well plates at a density of 2×10^4 cells/well in 100 µL of DMEM supplemented with 10% FBS and cultured for 24 h at 37°C. […] Cell viability was measured with the 3-(4,5-dimethylthiazol-2-yl)-2,5-diphenyl tetrazolium bromide (MTT) assay using the CellTiter 96® Non-radioactive Cell Proliferation assay kit (Promega, Madison, WI) according to the manufacturer’s instructions. The absorbance of the solution was measured at 570 nm using a Microplate Reader (Bio-Rad). Cell viability was expressed as the percentage of viable cells treated with scFv or peptide-scFv fusion proteins compared to the PBS-treated control (100%). All experiments were done in triplicate.
Figure 4 Intracellular uptake of peptides and anti-Ras scFv fusion proteins and their anti-proliferative activity. […] (B) Protein uptake was analyzed by Western blotting of fractionated lysates from HCT116 cells treated with PBS, anti-Ras scFv, BR2- or Tat-scFv fusion protein (each, 2 µM) at 37°C for 2 h. […] Cell proliferation was determined using the MTT assay. […]
HCT116 cells were seeded in 96-well plates at a density of 2×10^4 cells/well in 100 μl of DMEM supplemented with 10% FBS and cultured for 24 h at 37°C. […] The absorbance of the solution was measured at 570 nm using a Microplate Reader (Bio-Rad). […]

RAGLQFPVGRLLRRLLR [BR2]
decrease of cellular uptake at 4°C compared to 37°C ([1]; FITC-labeled peptide 5 µM, 30 min at 4°C after preincubation at 4°C): 88.5%
inhibition of penetration by methyl-ß-cyclodextrin (MßCD) ([1]; MßCD 5 mM pretreatment 1 h 37°C, peptide 30 min 37°C, mean of three experiments): 44.6%
reduction of uptake by ATP depletion (sodium azide) ([1]; NaN3 10 mM preincubation 1 h 37°C, then FITC-labeled peptide 5 µM 30 min 37°C): 67.7%
effect of ganglioside synthesis inhibitor PPMP on peptide uptake ([1]; PPMP 5 µM pretreatment 48 h): significantly reduced
inhibition of cellular uptake by amiloride ([1]; amiloride 5 mM pretreatment 1 h 37°C, peptide 30 min 37°C, mean of three experiments): 36.5%
effect of exogenous gangliosides on peptide penetration ([1]; gangliosides (GM3) 20 µg/ml, 30 min): partially inhibited
effect of exogenous heparin on peptide uptake ([1]; heparin 20 µg/ml, 30 min): almost no effect
effect of nocodazole on peptide transduction ([1]; nocodazole 100 ng/ml pretreatment 1 h 37°C, peptide 30 min 37°C): negligible effect
effect of exogenous sialic acids on peptide penetration ([1]; sialic acid (Neu5Ac) 20 µg/ml, 30 min): partially inhibited
anti-proliferative activity of peptide alone [2]: did not show any detectable inhibitions
